B1: ERT: enzyme replacement therapy: infusion of purified α-Gal A, e.g. agalsidase alfa (Replagal) or agalsidase beta (Fabrazyme) (protein, UniProt P06280 32-429, looked up)
Alpha-galactosidase A: LDNGLARTPTMGWLHWERFMCNLDCQEEPDSCISEKLFMEMAELMVSEGWKDAGYEYLCIDDCWMAPQRDSEGRLQADPQRFPHGIRQLANYVHSKGLKLGIYADVGNKTCAGFPGSFGYYDIDAQTFADWGVDLLKFDGCYCDSLENLADGYKHMSLALNRTGRSIVYSCEWPLYMWPFQKPNYTEIRQYCNHWRNFADIDDSWKSIKSILDWTSFNQERIVDVAGPGGWNDPDMLVIGNFGLSWNQQVTQMALWAIMAAPLFMSNDLRHISPQAKALLQDKDVIAINQDPLGKQGYQLRQGDNFEVWERPLSGLAWAVAMINRQEIGGPRSYTIAVASLGKGVACNPACFITQLLPVKRKLGFYEWTSRLRSHINPTGTVLLQLENTMQMSLKDLL

Test system: ERT-experienced patients with Fabry disease and migalastat-amenable GLA variants
Assay: Composite clinical outcomes (CCOs) in ATTRACT (AT1001-012) and open-label extension studies AT1001-041/AT1001-042, Phase 3
Assay type: in vivo, human
Conditions: for Incidence rate of composite clinical outcomes (CCOs): all patients; for Median time to first CCO: overall
From the text: Patients initiated ERT ≥12 months prior to the study.
AT1001-041 (NCT01458119) was a long-term OLE study evaluating the long-term safety and efficacy of migalastat in patients completing a previous migalastat study.
AT1001-042 (NCT02194985) is an ongoing, long-term OLE study evaluating the long-term safety and efficacy of migalastat in patients who participated in AT1001-012 or AT1001-041.
CCOs were defined prior to the planned analysis and included: • Renal events (a decrease in eGFRCKD-EPI≥15 mL/min/1.73 m^2, with the decreased eGFR<90 mL/min/1.73 m^2 relative to baseline; or an increase in 24-hour urine protein≥33%, with elevated protein≥300 mg relative to baseline) • Cardiac events (myocardial infarction; unstable cardiac angina; new symptomatic arrhythmia requiring antiarrhythmic medication, direct current cardioversion, pacemaker, or defibrillator implantation; congestive heart failure [New York Association Class III or IV]) • Cerebrovascular events (stroke or transient ischemic attack) • Death
Exposure to migalastat was calculated from the day of the first dose to the last available data point or the date of discontinuation; for this analysis, the exposure to ERT comprised the duration of participation in the ATTRACT study, and lasted up to 18 months.
Incidence rates were calculated for renal, cerebrovascular, and cardiac events separately and for the composite clinical outcomes. All individual events were accounted for when calculating incidence. Median times to the first clinical event were calculated based on the same data used for the incidence rates.
A direct comparison between migalastat and ERT was based on the 18 months exposure (the ERT data were from first 18 months in ATTRACT only); in addition, the incidence of CCOs for the whole follow-up period was calculated for migalastat (ATTRACT and subsequent OLE studies)
The long-term incidence for migalastat was calculated based on all available data for migalastat.

| Molecule | Incidence rate of composite clinical outcomes (CCOs) (first 18 months of treatment) | Incidence rate, cardiac event (females, at 18 months) | Incidence rate, cerebrovascular event (females, at 18 months) | Incidence rate, composite clinical outcome (females, at 18 months) | Incidence rate, death (females, at 18 months) | Incidence rate, renal event (females, at 18 months) | Incidence rate, cardiac event (males, at 18 months) | Incidence rate, cerebrovascular event (males, at 18 months) | Incidence rate, composite clinical outcome (males, at 18 months) | Incidence rate, death (males, at 18 months) | Incidence rate, renal event (males, at 18 months) | also measured |
| --- | --- | --- | --- | --- | --- | --- | --- | --- | --- | --- | --- | --- |
| Cl.OC[C@H]1NC[C@H](O)[C@@H](O)[C@H]1O [Migalastat, (2R,3S,4R,5S)-2-(hydroxymethyl) piperdine-3,4,5-triol] | 0.41 per patient·year | 0.05 per patient·year | 0 per patient·year | 0.34 per patient·year | 0 per patient·year | 0.29 per patient·year | 0.07 per patient·year | 0 per patient·year | 0.50 per patient·year | 0 per patient·year | 0.43 per patient·year | Incidence rate of composite clinical outcomes (CCOs) (long-term follow-up, at the data cutoff (median 4.8 years)): 0.45 per patient·year; Median time to first composite clinical outcome (females, 0-4.8 years): 1.15 Years; Incidence rate, cardiac event (females, at 4.8 years): 0.02 per patient·year; Incidence rate, cerebrovascular event (females, at 4.8 years): 0.02 per patient·year; Incidence rate, death (females, at 4.8 years): 0 per patient·year; Incidence rate, renal event (females, at 4.8 years): 0.33 per patient·year; Incidence rate, composite clinical outcome (females, at 4.8 years (data cutoff)): 0.37 per patient·year; Median time to first composite clinical outcome (males, 0-4.8 years): 1.30 Years; Incidence rate, cardiac event (males, at 4.8 years): 0.04 per patient·year; Incidence rate, cerebrovascular event (males, at 4.8 years): 0.01 per patient·year; Incidence rate, death (males, at 4.8 years): 0 per patient·year; Incidence rate, renal event (males, at 4.8 years): 0.51 per patient·year; Incidence rate, composite clinical outcome (males, at 4.8 years (data cutoff)): 0.56 per patient·year; Median time to first CCO (migalastat exposure (0-4.8 years)): 1.17 years |
| B1 | 0.85 per patient·year | 0.42 per patient·year | 0 per patient·year | 0.98 per patient·year | 0 per patient·year | 0.56 per patient·year | 0 per patient·year | 0.10 per patient·year | 0.68 per patient·year | 0 per patient·year | 0.58 per patient·year | Median time to first composite clinical outcome (females, 0-18 months): 0.35 Years; Median time to first composite clinical outcome (males, 0-18 months): 0.25 Years; Median time to first CCO (ERT exposure (0-18 months)): 0.25 years |

— patent publication US20210251972A1, “Methods Of Treating Fabry Disease” (Amicus Therapeutics, Inc., priority 2020, published 2021)
